The values that follow come from a melting point compilation (Tetko et al.; mined from patent text by program, amines drawn as free bases though some values may be those of a salt).

The melting point is the temperature of the solid-liquid transition.

Take `CCCCCc1cc(O)c2c(c1)OC(C)(C)CC2C1=CCN(Cc2ccc3ccccc3c2)CC1` (configuration not stated): the melting point lay in the range of 49 to 51.5 °C.
The value for `COc1ccc(N2CCN(c3c(C)c(C)c4c(c3C)C(O)(c3ccc5ccccc5c3)C(C)(C)O4)CC2)cc1` (configuration not stated) was 189 to 190 °C; that for `O=S(c1cc(Br)c(-c2ccc(Cl)cc2)[nH]1)C(F)(F)F` (configuration not stated) was 177 to 179 °C.
`CC1=C(Cc2ccc(-c3ccc(N(C)C)cc3)cc2)C(=O)c2ccccc2C1=O` had a melting point of 170 to 171 °C.
The value for `O=C1C[C@@H]2[C@@H](/C=C/[C@H](O)CCc3ccccc3)[C@H](OC(=O)c3ccc(-c4ccccc4)cc3)C[C@@H]2O1` was 81 to 83 °C; that for `Cc1ccc(Cc2cnc(NCCCNc3ncc(Cl)cc3Cl)[nH]c2=O)cn1` was 147 to 148 °C; that for `Cc1nc2c(Cl)cc(F)c(-n3c(=O)cc(C(F)(F)F)n(C)c3=O)c2s1` was 83 to 85 °C.
`Nc1c(C(=O)c2cccc(S(N)(=O)=O)c2)[nH]c2cc(Cl)ccc12` showed a melting point of 125 to 127 °C.
Under `CC(C)(c1ccccc1)c1ccc(OCC(=O)O)c(C(C)(C)c2ccccc2)c1` stands 114 °C; under `O=C1OCCC12Sc1cc(Cl)ccc1C2=O` (configuration not stated), 157 to 158 °C.
Under `OCc1ccc(OCc2cccc(Cl)c2)cn1` stands 78 to 80 °C; under `Ic1cc(I)c(OCCC(c2ccccc2)c2ccccc2)c(I)c1`, 120 to 121 °C; under `CCCn1c(=O)c2c(nc(C=Cc3cc(OC)c(OC)cc3S(N)(=O)=O)n2C)n(CCC)c1=O`, 266 to 268 °C.
Under `COc1ccc(-c2nc(O)c(C)s2)cc1` stands 149 to 150 °C.
Molecule `CC1(C)CC(=O)Nc2cc3nc(-c4cc5ccccc5[nH]4)[nH]c3cc21` gave a melting point of 264 to 267 °C.
Under `CN1CCCC(O)(c2cccc3[nH]ccc23)C1` (configuration not stated) stands 250 °C; under `CS(=O)(=O)c1ccc(-c2ccccc2Br)cc1`, 168 to 170 °C; under `Clc1ccc2c(NCc3ccccc3)nc(-n3ccnc3)nc2c1`, 265 to 268 °C.
The value for `CC(C)C(=O)NC1C(OCc2ccccc2)=CC=CC1(Br)[N+](=O)[O-]` (configuration not stated) was 197 to 198 °C; that for `COC(=O)C=Cc1c(C(=O)OC)[nH]c2c(C)ccc(C)c12` was 135 to 136 °C; that for `O=C(Nc1ccc(OCc2ccncc2)c2ccccc12)c1cc(F)cc(N2CCOCC2)c1` was 157 to 159 °C.
Under `COc1nn(-c2cccc(Nc3nccs3)c2)c(=O)n(Cc2ccc(Cl)cc2)c1=O` stands 176 to 178 °C; under `Cc1[nH]c(Cl)c(C)c1-c1ccnc(Nc2ccc(F)cc2)n1`, 200 to 203 °C; under `COc1ccc(S(C)(=O)=O)cc1C(=O)NCC1CCCN1C12CCC(CC1)C2` (configuration not stated), 125 °C.
`COc1ccc(C(=O)Nc2ccc(C(=O)NCc3ccccc3)cc2)cc1C12CC3CC(CC(C3)C1)C2` came in with a melting point of 279 to 280 °C.
The value for `CON=C(C(=O)O)C(=O)CBr` was 76 to 78 °C; that for `COc1ccc2c(c1)COc1c-2ccc2cc(OC)ccc12` was 175 to 178 °C.
Under `C[C@]1(CN2CCN(c3ccc(C(=O)O)cc3)CC2)Cn2cc([N+](=O)[O-])nc2O1` stands 248 to 252 °C; under `CC(C)(C)C(=O)NC1CCCNC(=O)C1` (configuration not stated), 106 to 107 °C.
Consider `COc1cc(OC)c(-c2cc3ccccc3[nH]2)cc1C=CC(=O)c1ccc(S(=O)(=O)Nc2ccccn2)cc1`, for which the melting point is 206 to 208 °C.
Under `Cc1nccn1-c1cccc(O)c1` stands 178 to 181 °C; under `C[C@@H](S[C@H]1CO[C@H](c2ccc(C(=O)NCc3ccc(C#N)cc3)cc2)OC1)[C@](O)(Cn1cncn1)c1ccc(F)cc1F`, 188 °C; under `Cc1ccc2cc(C3=NCCS3)[nH]c2c1NS(=O)(=O)c1cccs1`, 183 to 184 °C.
Under `CCc1cnc(NC(=O)C2c3ccccc3Oc3ccccc32)o1` stands 212 to 213 °C.
Take `c1cnc2cccn2c1`: the melting point was 230 to 231 °C.
Under `CCOC(=O)C(C)(C)Oc1cccc2c1CC(O)C(SC)C2` (configuration not stated) stands 132 to 134 °C; under `Cc1ccc(S(=O)(=O)NC(=O)OCCc2ccc(-n3c(CCCc4ccccc4)nc4c(C)nc(C)cc43)cc2)cc1`, 175 °C; under `COc1ccc(/C=C/CO)cc1OCc1nc(-c2ccccc2)oc1C`, 137 to 138 °C.
Under `CN(C)C(=O)C(Cc1ccccc1)NC(=O)Nc1n[nH]c(=S)s1` (configuration not stated) stands 196 to 197 °C; under `CC1(C)CCC(C)(C)c2c(C(O)C#C[Si](C)(C)C)cc(-c3ccccc3)cc21` (configuration not stated), 145 °C; under `Cc1ccc(Nc2ncccc2N)c(C)c1[N+](=O)[O-]`, 173 to 175 °C.
Under `CC(C)CCOCc1cccc(N2N=C(C(N)=O)NC2c2ccccc2F)c1` (configuration not stated) stands 120 to 122 °C; under `COC(C)=CC(=O)NC1CCC(C)CC1` (configuration not stated), 125 °C; under `CCCCN(CCCC)c1ccc(N=O)cc1`, 122 to 124 °C.
The molecule `Cc1cc(C)cc(NC(=O)Cc2ccc(OC3(C(=O)O)CCCC(C)C3)cc2)c1` (configuration not stated) registered a melting point of 175 to 177 °C.
`O=C1NC(=O)C(Cc2ccc(OCc3nc4cccnc4n3Cc3ccc(-c4ccccc4)cc3)cc2)S1` (configuration not stated) returned a melting point of 189 to 191 °C.
Under `Cc1cc(NC(=O)C(C)(O)COc2cc(Cl)cc(Cl)c2)ccc1[N+](=O)[O-]` (configuration not stated) stands 141 to 143 °C.
Under `CCc1cc(C(=O)O)c(C)o1` stands 97 to 99 °C.
Under `CCOC(=O)C1=C(COCc2cc(=O)[nH]c(N)n2)NC(C)=C(C(=O)OC)C1c1ccccc1Cl` (configuration not stated) stands 185 to 187 °C.
In the case of `CCc1c(Cl)sc2[nH]c(=O)c(=O)[nH]c12`, the melting point was in the range of 282 to 284 °C.
Under `CS(=O)(=O)Nc1cc2c(cc1Oc1ccccc1)CCO2` stands 133 °C; under `Cn1c(C(F)(F)F)cc(=O)n(-c2c(F)cc(Cl)c3c2OC(C)(C)CC3)c1=O`, 132 to 135 °C.
As for `CCCC(=O)Nc1cc(CNc2ccccc2C(=O)Nc2cc3ccccc3cn2)ccn1`, the melting point is 173 °C.
`O=C(Cl)c1c(Cl)c(Cl)c(Cl)c(Cl)c1CCl` came in with a melting point of 77 to 78 °C.
Molecule `COC(=O)c1cc(C(=O)NCCCCN2CCC(c3ccc4c(c3OC)CCCC4)CC2)ccc1-c1ccc(C(F)(F)F)cc1` had a melting point of 132 °C.
The value for `CCOCc1nc2c(N)nc3cc(Br)ccc3c2n1CC1CCCCN1C(=O)OC(C)(C)C` (configuration not stated) was 190 to 192 °C; that for `Cc1cc(C(=O)c2[nH]c3cc(Cl)ccc3c2CC(=O)O)no1` was 227 to 229 °C.
Under `CCOc1cc(Cl)ccc1Cn1nc(OC(C)C)cc1CCCOc1c(CC(=O)O)cccc1OC` stands 98 to 99 °C.
Consider `COC(=O)c1nc2ccc(NCCCN3CCC(OC(c4ccccc4)c4ccccc4)CC3)nn2n1`, for which the melting point was 93 to 96 °C.
The value for `Cc1cc(C(=O)NC(=O)NC2CCCCC2)no1` was 180 °C; that for `C[C@H](c1ccccc1)N(CC(=O)OC(C)(C)C)S(=O)(=O)c1ccc2c(Cl)cnc(NC(=N)N)c2c1` was 106 to 111 °C.
The value for `OC1(c2cc(F)cc(OCc3ccccc3)c2)CCOCC1` was 112 °C.
